Measured values as given in patent US9499550B2 (BRISTOL-MYERS SQUIBB COMPANY, priority 2012, dated 2016).
Read-outs that look alike come from different tables or passages of the source.

Legend:
[1] = tested on: HCV genotype 1a (H77 strain) replicon in HUH-7 cells; assay: HCV replicon luciferase reporter assay, genotype 1a; format: cell-based; details: Hepatitis C virus, Huh-7, 72 h, 3 days incubation
Method in brief: (§1)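 Replicon inhibition for both genotypes was measured as Renilla luciferase signal (EnduRen, 7.5 μM final, 2 h) after 3-day, 37° C exposure of replicon-bearing HUH-7 cells in 4% FCS DMEM, 0.5% DMSO. The 1b construct carries S1179I; the 1a H77 construct carries P1496L and S2204I. Twenty-point, 3-fold dilutions were fitted four-parametrically for EC50, and CC50 was taken from multiplexed Cell Titer-Blue.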

[2] = tested on: HCV genotype 1b (Con1) replicon in HUH-7 cells; assay: HCV replicon luciferase reporter assay, genotype 1b; format: cell-based; details: Hepatitis C virus, Huh-7, 72 h, 3 days incubation
Method in brief: as §1

[3] = HCV genotype 1a replicon luciferase, read-out: LE_1a (EC50, range)
[4] = HCV genotype 1b replicon luciferase, read-out: LE_1b (EC50, range)
[5] = HCV genotype 1a replicon luciferase assay, range class, read-out: LE_1a (EC50, range)
[6] = HCV genotype 1b replicon luciferase assay, range class, read-out: LE_1b (EC50, range)

`COc1ccc2c(O[C@@H]3C[C@H]4C(=O)N[C@]5(C(=O)NS(=O)(=O)C6(C)CC6)C[C@H]5/C=C\CC[C@@H](C)C[C@@H](C)[C@H](NC(=O)OC(C)(C)C(C)(F)F)C(=O)N4C3)nc(-c3ccc(OC(C)C)cn3)cc2c1` [Compound 5477, 3,3-difluoro-2-methylbutan-2-yl((2R,6S,7R,9R,13aS,14aR,16aS,Z)-2-((3-(5-isopropoxypyridin-2-yl)-6-methoxyisoquinolin-1-yl)oxy)-7,9-dimethyl-14a-(((1-methylcyclopropyl)sulfonyl)carbamoyl)-5,16-dioxo-1,2,3,5,6,7,8,9,10,11,13a,14,14a,15,16,16a-hexadecahydrocyclopropa[e]pyrrolo[1,2-a][1,4]diazacyclopentadecin-6-yl)carbamate] gave an EC50 [1, 3] of 1.01 to 5 nM and an EC50 [2, 4] of 1.01 to 5 nM.

In the case of `CC[C@@H]1C[C@@H](C)CC/C=C\[C@@H]2C[C@@]2(C(=O)NS(=O)(=O)C2(C)CC2)NC(=O)[C@@H]2C[C@@H](Oc3ncc(OC)c4cc(OC)c(F)cc34)CN2C(=O)[C@H]1NC(=O)OC(C)(C)C(F)(F)F` [Compound 4208], the EC50 ([1]; GETYPE1A, HCV genotype 1a replicon luciferase, read-out: LE_1a (EC50, range)) is reported as 4.82 to 103 nM and the EC50 ([2]; GETYPE1B, HCV genotype 1b replicon luciferase, read-out: LE_1b (EC50, range)) is reported as < 5.46 nM.

`CC[C@@H]1C[C@H](C)CC/C=C\[C@@H]2C[C@@]2(C(=O)NS(=O)(=O)C2(C)CC2)NC(=O)[C@@H]2C[C@@H](Oc3nccc4c5c(ccc34)OCCO5)CN2C(=O)[C@H]1NC(=O)OC(C)(C)C(F)(F)F` [Compound 5334, 1,1,1-trifluoro-2-methylpropan-2-yl((2R,6S,7R,9R,13aS,14aR,16aS,Z)-2-((2,3-dihydro-[1,4]dioxino[2,3-f]isoquinolin-7-yl)oxy)-7-ethyl-9-methyl-14a-(((1-methylcyclopropyl)sulfonyl)carbamoyl)-5,16-dioxo-1,2,3,5,6,7,8,9,10,11,13a,14,14a,15,16,16a-hexadecahydrocyclopropa[e]pyrrolo[1,2-a][1,4]diazacyclopentadecin-6-yl)carbamate] was tested, and the EC50 [1, 3] was < 5.46 nM and the EC50 [2, 4] was < 5.46 nM.

`[2H]C([2H])([2H])Oc1cc2ccnc(O[C@@H]3C[C@H]4C(=O)N[C@]5(C(=O)NS(=O)(=O)C6(C)CC6)C[C@H]5/C=C\CC[C@@H](C)C[C@@H](CC)[C@H](NC(=O)OC(C)(C)C(F)(F)F)C(=O)N4C3)c2cc1F` [Compound 5503] showed an EC50 [1, 3] of 1.01 to 5 nM and an EC50 [2, 4] of 0.51 to 1 nM.

`COc1cnc(O[C@@H]2C[C@H]3C(=O)N[C@]4(C(=O)NS(=O)(=O)C5(C)CC5)C[C@H]4/C=C\CC[C@@H](C)C[C@@H](C)[C@H](NC(=O)OC(C)(C)C)C(=O)N3C2)c2ccccc12` [Compound 4057, tert-butyl (2R,6S,7R,9R,13aS,14aR,16aS,Z)-2-(4-methoxyisoquinolin-1-yloxy)-7,9-dimethyl-14a-(1-methylcyclopropylsulfonylcarbamoyl)-5,16-dioxo-1,2,3,5,6,7,8,9,10,11,13a,14,14a,15,16,16a-hexadecahydrocyclopropa[e]pyrrolo[1,2-a][1,4]diazacyclopentadecin-6-ylcarbamate] was tested, and the EC50 [1, 3] was < 5.46 nM and the EC50 [2, 4] was < 5.46 nM.

`COc1ccc2c(O[C@@H]3C[C@H]4C(=O)N[C@]5(C(=O)NS(=O)(=O)C6CC6)C[C@H]5/C=C\CC[C@H](C)C[C@@H](C)[C@H](NC(=O)OC(C)(C)C)C(=O)N4C3)nc(-c3ccccc3)cc2c1` [Compound 5186, tert-butyl ((2R,6S,7R,9S,13aS,14aR,16aS,Z)-14a-((cyclopropylsulfonyl)carbamoyl)-2-((6-methoxy-3-phenylisoquinolin-1-yl)oxy)-7,9-dimethyl-5,16-dioxo-1,2,3,5,6,7,8,9,10,11,13a,14,14a,15,16,16a-hexadecahydrocyclopropa[e]pyrrolo[1,2-a][1,4]diazacyclopentadecin-6-yl)carbamate] was tested, and the EC50 [1, 3] was < 5.46 nM and the EC50 [2, 4] was < 5.46 nM.

For `CCOc1cc2ccnc(O[C@@H]3C[C@H]4C(=O)N[C@]5(C(=O)NS(=O)(=O)C6(C)CC6)C[C@H]5/C=C\CC[C@@H](C)C[C@@H](C)[C@H](NC(=O)OC(C)(C)C)C(=O)N4C3)c2cc1F` [Compound 5393, tert-butyl ((2R,6S,7R,9R,13aS,14aR,16aS,Z)-2-((6-ethoxy-7-fluoroisoquinolin-1-yl)oxy)-7,9-dimethyl-14a-(((1-methylcyclopropyl)sulfonyl)carbamoyl)-5,16-dioxo-1,2,3,5,6,7,8,9,10,11,13a,14,14a,15,16,16a-hexadecahydrocyclopropa[e]pyrrolo[1,2-a][1,4]diazacyclopentadecin-6-yl)carbamate], the EC50 ([1]; HCV genotype 1a replicon luciferase, read-out: LE_1a (EC50)) was 0.92 nM, the EC50 [1, 3] was 0.51 to 1 nM and the EC50 ([2]; HCV genotype 1b replicon luciferase, read-out: LE_1b (EC50)) was 0.55 nM. The EC50 [2, 4] was 0.51 to 1 nM.

`CC[C@@H]1C[C@@H](C)CC/C=C\[C@@H]2C[C@@]2(C(=O)NS(=O)(=O)C2CC2)NC(=O)[C@@H]2C[C@@H](Oc3nccc4cc(OC)c(F)cc34)CN2C(=O)[C@H]1NC(=O)OC(C)(C)C(C)(F)F` [Compound 5472, 3,3-difluoro-2-methylbutan-2-yl((2R,6S,7R,9S,13aS,14aR,16aS,Z)-14a-((cyclopropylsulfonyl)carbamoyl)-7-ethyl-2-((7-fluoro-6-methoxyisoquinolin-1-yl)oxy)-9-methyl-5,16-dioxo-1,2,3,5,6,7,8,9,10,11,13a,14,14a,15,16,16a-hexadecahydrocyclopropa[e]pyrrolo[1,2-a][1,4]diazacyclopentadecin-6-yl)carbamate] showed an EC50 [1, 3] of 1.01 to 5 nM and an EC50 [2, 4] of 1.01 to 5 nM.

`CC[C@@H]1C[C@H](C)CC/C=C\[C@@H]2C[C@@]2(C(=O)NS(=O)(=O)C2(C)CC2)NC(=O)[C@@H]2C[C@@H](Oc3nnc(OC)c4ccccc34)CN2C(=O)[C@H]1NC(=O)NC(C)(C)C` [Compound 5024, (2R,6S,7R,9R,13aS,14aR,16aS,Z)-6-(3-(tert-butyl)ureido)-7-ethyl-2-((4-methoxyphthalazin-1-yl)oxy)-9-methyl-N-((1-methylcyclopropyl)sulfonyl)-5,16-dioxo-1,2,3,5,6,7,8,9,10,11,13a,14,14a,15,16,16a-hexadecahydrocyclopropa[e]pyrrolo[1,2-a][1,4]diazacyclopentadecine-14a-carboxamide] was tested, and the EC50 [1, 3] was < 5.46 nM and the EC50 [2, 4] was < 5.46 nM.

Work on `C[C@H]1CC/C=C\[C@@H]2C[C@@]2(C(=O)NS(=O)(=O)C2CC2)NC(=O)[C@@H]2C[C@@H](Oc3ncc(OCC(F)F)c4ccccc34)CN2C(=O)[C@@H](NC(=O)OC(C)(C)C(F)(F)F)[C@H](C)C1` [Compound 1031, 1,1,1-trifluoro-2-methylpropan-2-yl((2R,6S,7R,9S,13aS,14aR,16aS,Z)-14a-((cyclopropylsulfonyl)carbamoyl)-2-((4-(2,2-difluoroethoxyl)isoquinolin-1-yl)oxy)-7,9-dimethyl-5,16-dioxo-1,2,3,5,6,7,8,9,10,11,13a,14,14a,15,16,16a-hexadecahydrocyclopropa[e]pyrrolo[1,2-a][1,4]diazacyclopentadecin-6-yl)carbamate] yielded an EC50 [1, 5] of 4.82 to 103 nM and an EC50 [2, 6] of 4.82 to 103 nM.

With `COc1ccc2c(O[C@@H]3C[C@H]4C(=O)N[C@]5(C(=O)NS(=O)(=O)C6(C)CC6)C[C@H]5/C=C\CC[C@@H](C)C[C@@H](C)[C@H](NC(=O)OC(C)(C)C(F)(F)F)C(=O)N4C3)nc(-c3ccc(F)cc3)cc2c1` [Compound 3080, 1,1,1-trifluoro-2-methylpropan-2-yl((2R,6S,7R,9R,13aS,14aR,16aS,Z)-2-((3-(4-fluorophenyl)-6-methoxyisoquinolin-1-yl)oxy)-7,9-dimethyl-14a-(((1-methylcyclopropyl)sulfonyl)carbamoyl)-5,16-dioxo-1,2,3,5,6,7,8,9,10,11,13a,14,14a,15,16,16a-hexadecahydrocyclopropa[e]pyrrolo[1,2-a][1,4]diazacyclopentadecin-6-yl)carbamate] the EC50 [1, 5] was < 5.46 nM and the EC50 [2, 6] was < 5.46 nM.
